Experimental data from patent publication US8629143B2, “Potassium channel modulators” (AbbVie Inc., priority 2009, dated 2014).

Molecular target: T1, KCNQ 2/3 channels (HEK293 cells stably expressing human KCNQ2 and KCNQ3 subunits) (Homo sapiens, UniProt O43525+O43526)
T1 construct: expressed in transfected cells; host or cells: HEK293
Assay: KCNQ2/3 channel activation, thallium flux FLIPR assay with BTC-AM dye
Format: cell-based
Details: for Emax: HEK293, maximum response relative to the response produced by 10 μM retigabine (set at 100%), read-out: Max. %; for EC50: HEK293 cells expressing human KCNQ2 and KCNQ3, thallium flux, FLIPR
Method in brief: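 HEK293 cells stably expressing human KCNQ2/KCNQ3 were loaded with BTC-AM (3 μg/mL, 2 h, RT) and preincubated with compound for 4 min in pH 7.3 gluconate buffer containing 0.1 mM ouabain. Flux was triggered by 6 mM TlNO3/10 mM K2SO4 and read for 3 min; EC50 came from summed responses over basal, with maximum relative to 10 μM retigabine (100%).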

O=C(CC1CC2CCC1C2)Nn1nc(CCc2ccccc2)c2ccccc2c1=O (racemic) [Example 167, (±)-2-(exo-bicyclo[2.2.1]hept-2-yl)-N-[1-oxo-4-(2-phenylethyl)phthalazin-2(1H)-yl]acetamide]
Emax: 144% | EC50: < 100 nM

O=C(Cc1ccc(F)cc1)Nn1nc(-c2ccccc2)c2ccsc2c1=O [Example 32, 2-(4-fluorophenyl)-N-(7-oxo-4-phenylthieno[2,3-d]pyridazin-6(7H)-yl)acetamide]
Emax: 46% | EC50: 1000 to 10000 nM

O=C(CC1CC2CCC1C2)Nn1nc(-c2ccc(Cl)cc2)c2ccccc2c1=O (racemic) [Example 113, (±)-2-(exo-bicyclo[2.2.1]hept-2-yl)-N-[4-(4-chlorophenyl)-1-oxophthalazin-2(1H)-yl]acetamide]
Emax: 154% | EC50: < 100 nM

O=C(Cc1ccc(Cl)cc1)Nn1nc(C2CC2)c2ccccc2c1=O [Example 22, 2-(4-chlorophenyl)-N-(4-cyclopropyl-1-oxophthalazin-2(1H)-yl)acetamide]
Emax: 63% | EC50: 1000 to 10000 nM

O=C(C[C@@H]1C[C@@H]2CC[C@H]1C2)Nn1nc(-c2ccc(F)cc2)c2ccccc2c1=O [Example 129, 2-[(1S,2S,4R)-bicyclo[2.2.1]hept-2-yl]-N-[4-(4-fluorophenyl)-1-oxophthalazin-2(1H)-yl]acetamide]
Emax: 143% | EC50: < 100 nM

O=C(Cc1cc(F)cc(F)c1)Nn1nc(-c2cccc(Cl)c2)c2ccccc2c1=O [Example 128, N-[4-(3-chlorophenyl)-1-oxophthalazin-2(1H)-yl]-2-(3,5-difluorophenyl)acetamide]
Emax: 140% | EC50: 100 to 500 nM

O=C(CC1(c2ccccc2)CCCC1)Nn1nc(-c2ccc(Cl)cc2)c2ccccc2c1=O [Example 119, N-[4-(4-chlorophenyl)-1-oxophthalazin-2(1H)-yl]-2-(1-phenylcyclopentyl)acetamide]
Emax: 12% | EC50: > 10000 nM

COc1cccc(CC(=O)Nn2nc(-c3ccc(Cl)cc3)c3ccccc3c2=O)c1 [Example 105, N-[4-(4-chlorophenyl)-1-oxophthalazin-2(1H)-yl]-2-(3-methoxyphenyl)acetamide]
Emax: 84% | EC50: 100 to 500 nM

O=C(Cc1cc(F)cc(F)c1)Nn1nc(-c2ccc(Cl)cc2)c2c(F)ccc(F)c2c1=O [Example 181, N-[4-(4-chlorophenyl)-5,8-difluoro-1-oxophthalazin-2(1H)-yl]-2-(3,5-difluorophenyl)acetamide]
Emax: 166% | EC50: 100 to 500 nM

O=C(Cc1ccccc1)Nn1nc(C(F)(F)F)c2ccccc2c1=O [Example 57, N-[1-oxo-4-(trifluoromethyl)phthalazin-2(1H)-yl]-2-phenylacetamide]
Emax: 85% | EC50: 1000 to 10000 nM

O=C(C[C@@H]1C[C@@H]2CC[C@H]1C2)Nn1nc(-c2ccc(C(F)(F)F)cc2)c2ccccc2c1=O [Example 147, 2-[(1S,2S,4R)-bicyclo[2.2.1]hept-2-yl]-N-{1-oxo-4-[4-(trifluoromethyl)phenyl]phthalazin-2(1H)-yl}acetamide]
Emax: 154% | EC50: 100 to 500 nM

CC1(CC(=O)Nn2nc(-c3ccc(Cl)cc3)c3ccccc3c2=O)CCCC1 [Example 86, N-[4-(4-chlorophenyl)-1-oxophthalazin-2(1H)-yl]-2-(1-methylcyclopentyl)acetamide]
Emax: 166% | EC50: < 100 nM

O=C(Cc1cccc(F)c1F)Nn1nc(-c2ccccc2)c2ccccc2c1=O [Example 25, 2-(2,3-difluorophenyl)-N-(1-oxo-4-phenylphthalazin-2(1H)-yl)acetamide]
Emax: 139% | EC50: 1000 to 10000 nM

CC(C)(CC(=O)Nn1nc(C(F)(F)F)c2ccccc2c1=O)c1ccccc1 [Example 52, 3-methyl-N-[1-oxo-4-(trifluoromethyl)phthalazin-2(1H)-yl]-3-phenylbutanamide]
Emax: 116% | EC50: 100 to 500 nM

CC1(C)[C@H]2CC[C@@H](CC(=O)Nn3nc(-c4ccccc4)c4ccsc4c3=O)[C@@H]1C2 [Example 30, 2-[(1S,2S,5S)-6,6-dimethylbicyclo[3.1.1]hept-2-yl]-N-(7-oxo-4-phenylthieno[2,3-d]pyridazin-6(7H)-yl)acetamide]
Emax: 94% | EC50: 1000 to 10000 nM

CC1(C)[C@H]2CC[C@@H](CC(=O)Nn3nc(-c4ccc(Cl)cc4)c4ccccc4c3=O)[C@@H]1C2 [Example 115, N-[4-(4-chlorophenyl)-1-oxophthalazin-2(1H)-yl]-2-[(1S,2S,5S)-6,6-dimethylbicyclo[3.1.1]hept-2-yl]acetamide]
Emax: 69% | EC50: 100 to 500 nM

Cc1ccc(C)c(-c2nn(NC(=O)Cc3ccc(Cl)cc3)c(=O)c3ccccc23)c1 [Example 157, 2-(4-chlorophenyl)-N-[4-(2,5-dimethylphenyl)-1-oxophthalazin-2(1H)-yl]acetamide]
Emax: 155% | EC50: 100 to 500 nM

CC(C)(C)c1nn(NC(=O)CC2CCCC2)c(=O)c2ccccc12 [Example 62, N-(4-tert-butyl-1-oxophthalazin-2(1H)-yl)-2-cyclopentylacetamide]
Emax: 149% | EC50: < 100 nM

CC(C)c1nn(NC(=O)CC23CC4CC(CC(C4)C2)C3)c(=O)c2cc(C(F)(F)F)ccc12 [Example 173, 2-(adamantan-1-yl)-N-[4-isopropyl-1-oxo-7-(trifluoromethyl)phthalazin-2(1H)-yl]acetamide]
Emax: -12% | EC50: > 10000 nM

O=C(CC12CC3CC(CC(C3)C1)C2)Nn1nc(C2CC2)c2ccccc2c1=O [Example 24, 2-(1-adamantyl)-N-(4-cyclopropyl-1-oxophthalazin-2(1H)-yl)acetamide]
Emax: 235% | EC50: < 100 nM

Cc1ccc(C)c(-c2nn(NC(=O)Cc3cc(F)cc(F)c3)c(=O)c3ccccc23)c1 [Example 158, 2-(3,5-difluorophenyl)-N-[4-(2,5-dimethylphenyl)-1-oxophthalazin-2(1H)-yl]acetamide]
Emax: 167% | EC50: 100 to 500 nM

CC(C)c1nn(NC(=O)CC23CC4CC(CC(C4)C2)C3)c(=O)c2ccccc12 [Example 6, 2-(1-adamantyl)-N-(4-isopropyl-1-oxophthalazin-2(1H)-yl)acetamide]
Emax: 200% | EC50: < 100 nM

CC(C)(CC(=O)Nn1nc(-c2ccc(Cl)cc2)c2ccccc2c1=O)c1ccccc1 [Example 89, N-[4-(4-chlorophenyl)-1-oxophthalazin-2(1H)-yl]-3-methyl-3-phenylbutanamide]
Emax: 118% | EC50: 100 to 500 nM

O=C(Cc1cccnc1)Nn1nc(-c2ccc(Cl)cc2)c2ccccc2c1=O [Example 93, N-[4-(4-chlorophenyl)-1-oxophthalazin-2(1H)-yl]-2-(pyridin-3-yl)acetamide]
Emax: 149% | EC50: 1000 to 10000 nM

O=C(C[C@H]1C[C@@H]2CC[C@H]1C2)Nn1nc(C2(c3ccccc3)CC2)c2ccccc2c1=O (racemic) [Example 172, (±)-2-(exo-bicyclo[2.2.1]hept-2-yl)-N-[1-oxo-4-(1-phenylcyclopropyl)phthalazin-2(1H)-yl]acetamide]
Emax: 195% | EC50: < 100 nM

CC(C)(CC(=O)Nn1nc(-c2ccccc2)c2ccccc2c1=O)c1ccccc1 [Example 82, 3-methyl-N-(1-oxo-4-phenylphthalazin-2(1H)-yl)-3-phenylbutanamide]
Emax: 156% | EC50: 100 to 500 nM

O=C(Cc1ccc(Cl)cc1Cl)Nn1nc(-c2ccccc2)c2ccccc2c1=O [Example 83, 2-(2,4-dichlorophenyl)-N-(1-oxo-4-phenylphthalazin-2(1H)-yl)acetamide]
Emax: 13% | EC50: > 10000 nM

O=C(CC12CC3CC(CC(C3)C1)C2)Nn1nc(Cl)c2ccccc2c1=O [Example 20, 2-(1-adamantyl)-N-(4-chloro-1-oxophthalazin-2(1H)-yl)acetamide]
Emax: 123% | EC50: 100 to 500 nM

O=C(CC1(c2ccccc2)CC1)Nn1nc(C(F)(F)F)c2ccccc2c1=O [Example 51, N-[1-oxo-4-(trifluoromethyl)phthalazin-2(1H)-yl]-2-(1-phenylcyclopropyl)acetamide]
Emax: -2% | EC50: > 10000 nM

O=C(CC1CC2CCC1C2)Nn1nc(C2CCCCC2)c2ccccc2c1=O (racemic) [Example 74, (±)-2-(exo-bicyclo[2.2.1]heptan-2-yl)-N-(4-cyclohexyl-1-oxophthalazin-2(1H)-yl)acetamide]
Emax: 165% | EC50: < 100 nM

O=C(Cc1ccc(Cl)cc1)Nn1nc(-c2ccc(Cl)cc2)c2c(F)ccc(F)c2c1=O [Example 182, 2-(4-chlorophenyl)-N-[4-(4-chlorophenyl)-5,8-difluoro-1-oxophthalazin-2(1H)-yl]acetamide]
Emax: 122% | EC50: 100 to 500 nM

O=C(Cc1ccc(Cl)cc1)Nn1nc(-c2ccccc2)c2cc(F)ccc2c1=O [Example 36, 2-(4-chlorophenyl)-N-(6-fluoro-1-oxo-4-phenylphthalazin-2(1H)-yl)acetamide]
Emax: 155% | EC50: 100 to 500 nM

CC(C)(CC(=O)Nn1nc(-c2ccc(Br)cc2)c2ccccc2c1=O)c1ccccc1 [Example 85, N-[4-(4-bromophenyl)-1-oxophthalazin-2(1H)-yl]-3-methyl-3-phenylbutanamide]
Emax: 117% | EC50: 100 to 500 nM

CS(=O)(=O)c1ccc(CC(=O)Nn2nc(C(F)(F)F)c3ccccc3c2=O)cc1 [Example 49, 2-[4-(methylsulfonyl)phenyl]-N-[1-oxo-4-(trifluoromethyl)phthalazin-2(1H)-yl]acetamide]
Emax: 3% | EC50: > 10000 nM

O=C(Cc1ccc(Cl)cc1)Nn1nc(Cc2ccc(Cl)cc2)c2ccccc2c1=O [Example 145, N-[4-(4-chlorobenzyl)-1-oxophthalazin-2(1H)-yl]-2-(4-chlorophenyl)acetamide]
Emax: 101% | EC50: 100 to 500 nM
